Results on 39 molecules are retold here after EP4768480A1, “ALKOXY THIOPHENE ACYL ARYLAMINE COMPOUNDS AND USE THEREOF” (priority 2024, dated 2025).

In the experiment the target is T1, SMS2 (Homo sapiens, UniProt Q8NHU3).
T1 construct: CAO, Yu research team, National Protein Scientific Center (Shanghai); supplied by an outside laboratory, not a commercial vendor
T1 sequence (Q8NHU3 1-365): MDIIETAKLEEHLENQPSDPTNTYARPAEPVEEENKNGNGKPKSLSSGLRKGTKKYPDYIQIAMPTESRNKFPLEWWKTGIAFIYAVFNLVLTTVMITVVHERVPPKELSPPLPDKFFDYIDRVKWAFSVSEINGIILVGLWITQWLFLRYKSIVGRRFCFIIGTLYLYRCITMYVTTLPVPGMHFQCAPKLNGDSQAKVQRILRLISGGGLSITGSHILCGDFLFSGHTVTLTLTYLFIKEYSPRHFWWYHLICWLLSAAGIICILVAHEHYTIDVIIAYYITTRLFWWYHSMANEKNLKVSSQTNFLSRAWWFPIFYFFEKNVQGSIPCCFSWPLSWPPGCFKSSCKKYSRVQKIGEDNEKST
Nature of the experiment: SMS2 inhibitory activity in vitro, HPLC fluorescence quantitative detection (C6-NBD-ceramide to C6-NBD-SM). Format: biochemical. The settings on record: SMS2 pure enzyme, 37°C, 30 minutes, average of two measurements; for inhibition at 10 µM: 10 µM test compound, read-out: Inhibition rate on SMS2 at C/µM 10; for inhibition at 1 µM: 1 µM test compound, read-out: Inhibition rate on SMS2 at C/µM 1. From the text: • 1. Electro-thermostatic water bath, from Shanghai Yiheng Technology Co., Ltd.); • 2. Vortex Mixer, with model ID of XW-80A, from Shanghai Jingke Industrial Co., Ltd.; • 3. […] High Performance Liquid Chromatography Agilent 1100, equipped with a quaternary pump, vacuum degassing, and FLD fluorescence detector, from Agilent Technologies, Palo Alto, CA, USA; • 5. HPLC column COSMOSIL 5C18-MS-II (4.6mm I.D. X 250mm); • 6. […] The organic solvents used in the present disclosure were purchased from Shanghai National Reagent Company, wherein methanol was pure chromatography; water was ultra-pure water which is filtrated by Milli-Q pump, deionized and ultra-filtrated with 0.22 µm membrane; and other biological consumables were purchased from domestic companies; • 8. Preparation of test compound solutions: each test compound was accurately weighed and dissolved in an appropriate volume of DMSO to prepare a 10 mmol/L stock solution. The stock solution was then diluted with an appropriate volume of DMSO to achieve the desired working concentration; • 9. SMS2 pure enzyme, DDM solution and buffer solution were provided by CAO, Yu research team from National Protein Scientific Center (Shanghai).
79 µl of the diluted enzyme solution were transferred into a 1.5 mL EP tube, 1 µl of inhibitor DMSO solution were added thereto, vortexing for 15 seconds, followed by standing at room temperature for 5 minutes. 20 µl of a mixed solution of DMPC and C6-NBD-ceramide were added, vortexing for 15 seconds, and incubated at 37°C for 30 minutes. 200 µl of anhydrous ethanol were added to quench the reaction, vortexing for 15 seconds. 200 µl of the reaction solution were taken out and stored at 4°C and avoided light for HPLC detection.
The peak area values of A(sm) and A(ceramide) in the HPLC chromatogram corresponding to C6-NBD-SM and C6-NBD-Ceramide in the DMSO group and inhibitor group samples were analyzed and recorded, and the inhibition rate of the test compound was calculated according to the following formula. Inhibition rate = (Peak area values of DMSO group−Peak area values of Inhibitor group)/(Peak area values of DMSO group) × 100% [formula]

On to `O=C(Nc1cccnn1)c1sccc1OCc1ccccc1` [1-4, 3-benzyloxy-N-(pyridazin-3-yl)thiophene-2-carboxamide], for which the inhibition at 10 µM came out at 63%.

For the molecule `N#Cc1ccc(COc2ccsc2C(=O)Nc2cccnc2)cc1` [1-52, 3-(4-cyanobenzyloxy)-N-(pyridin-3-yl)thiophene-2-carboxamide], the inhibition at 10 µM came out at 50%.

Regarding `Cc1cccc(C)c1COc1ccsc1C(=O)Nc1cccnc1` [1-60, 3-(2,6-dimethylbenzyloxy)-N-(pyridin-3-yl)thiophene-2-carboxamide], the inhibition at 1 µM is 78%.

In the case of `CCCCCCOc1ccc(Cl)cc1COc1ccsc1C(=O)Nc1cccnc1` [1-73, 3-(5-chloro-2-(hexyloxy)benzyloxy)-N-(pyridin-3-yl)thiophene-2-carboxamide], the inhibition at 1 µM amounted to 90%.

Turning to `CCOC(=O)c1ccccc1COc1ccsc1C(=O)Nc1cccnc1` [1-84], the inhibition at 1 µM amounted to 63%.

With `COc1cccc(COc2ccsc2C(=O)Nc2cccnc2)c1` [1-58, 3-(3-methoxybenzyloxy)-N-(pyridin-3-yl)thiophene-2-carboxamide], the inhibition at 1 µM worked out at 70%.

As for `CC(C)(O)COc1ccc(F)cc1COc1ccsc1C(=O)Nc1cccnc1` [1-8, 3-(5-fluoro-2-(2-hydroxy-2-methylpropoxy)benzyloxy)-N-(pyridin-3-yl)thiophene-2-carboxamide], the inhibition at 10 µM came out at 56%.

For the molecule `O=C(Nc1cccnc1)c1sccc1OCc1cccs1` [1-77, 3-(thiophen-2-ylmethoxy)-N-(pyridin-3-yl)thiophene-2-carboxamide], the inhibition at 10 µM is 65%.

On to `Cc1ccncc1NC(=O)c1sccc1OCc1ccccc1` [1-69, 3-benzyloxy-N-(4-methylpyridin-3-yl)thiophene-2-carboxamide], for which the inhibition at 10 µM worked out at 65%.

`O=C(Nc1cc(C(F)(F)F)ccn1)c1sccc1OCc1ccccc1` [1-5, 3-benzyloxy-N-(4-(trifluoromethyl)pyridin-2-yl)thiophene-2-carboxamide]: the inhibition at 1 µM turned out to be 47%.

As to `O=C(Nc1cccnc1)c1sccc1OCc1ccccc1OC(F)F` [1-85, 3-(2-difluoro-methoxybenzyloxy)-N-(pyridin-3-yl)thiophene-2-carboxamide], the inhibition at 1 µM is 73%.

Regarding `CC(C)(C)C(=O)Oc1ccc(Cl)c(COc2ccsc2C(=O)Nc2cccnc2)c1` [1-23], the inhibition at 10 µM was 53%.

Take `O=C(Nc1cccnc1)c1sccc1OCc1cccc(OC(F)(F)F)c1` [1-55, 3-(3-(trifluoromethoxy)benzyloxy)-N-(pyridin-3-yl)thiophene-2-carboxamide]: the inhibition at 10 µM turned out to be 65%.

In the case of `O=C(Nc1cccc(O)n1)c1sccc1OCc1ccccc1` [1-9, 3-benzyloxy-N-(6-hydroxypyridine-2-yl)thiophene-2-carboxamide], the inhibition at 10 µM amounted to 50%.

Take `N#Cc1ccccc1COc1ccsc1C(=O)Nc1cccnc1` [1-50, 3-(2-cyanobenzyloxy)-N-(pyridin-3-yl)thiophene-2-carboxamide]: the inhibition at 10 µM came to 66%.

`O=C(Nc1cccnc1)c1sccc1OCc1c(F)c(F)cc(F)c1F` [1-67, 3-(2,3,5,6-tetrafluorobenzyloxy)-N-(pyridin-3-yl)thiophene-2-carboxamide]: the inhibition at 1 µM worked out at 67%.

`O=C(Nc1cccnc1)c1cccnc1OCc1ccccc1` [12-18, 2-benzyloxy-N-(pyridin-3-yl)pyridin-3-carboxamide]: the inhibition at 10 µM was determined as 22%.

For the molecule `Cc1ccccc1COc1ccsc1C(=O)Nc1cccnc1` [1-41, 3-(2-methylbenzyloxy)-N-(pyridin-3-yl)thiophene-2-carboxamide], the inhibition at 1 µM amounted to 72%.

For the molecule `COc1ccc(OC)c(COc2ccsc2C(=O)Nc2cccnc2)c1` [1-98, 3-(2,5-dimethoxybenzyloxy)-N-(pyridin-3-yl)thiophene-2-carboxamide], the inhibition at 1 µM was found to be 50%.

As to `Cc1cc(OCc2ccccc2)c(C(=O)Nc2cccnc2)s1` [1-40, 3-benzyloxy-5-methyl-N-(pyridin-3-yl)thiophene-2-carboxamide], the inhibition at 1 µM stood at 23%.

Turning to `O=C(Nc1cccnc1)c1sccc1OCc1ccsc1` [1-78, 3-(thiophen-3-ylmethoxy)-N-(pyridin-3-yl)thiophene-2-carboxamide], the inhibition at 10 µM stood at 59%.

In the case of `O=C(Nc1cccnc1)c1scc(Br)c1OCc1ccccc1` [1-15, 3-benzyloxy-4-bromo-N-(pyridin-3-yl)thiophene-2-carboxamide], the inhibition at 10 µM was 53%.

Consider `O=C(Nc1cccnc1)c1ncccc1OCc1ccccc1` [12-15, 3-benzyloxy-N-(pyridin-3-yl)pyridin-2-carboxamide], for which the inhibition at 10 µM turned out to be 16%.

In the case of `CCCCCCOc1cc(Cl)ccc1COc1ccsc1C(=O)Nc1cccnc1` [1-71, 3-(4-chloro-2-(hexyloxy)benzyloxy)-N-(pyridin-3-yl)thiophene-2-carboxamide], the inhibition at 1 µM amounted to 95%.

As for `O=C(Nc1cccnc1)c1sc([N+](=O)[O-])cc1OCc1ccccc1` [1-14, 3-benzyloxy-5-nitro-N-(pyridin-3-yl)thiophene-2-carboxamide], the inhibition at 10 µM is 50%.

`O=C(Nc1cccnc1)c1sccc1OCc1cccc(F)c1` [1-45, 3-(3-fluorobenzyloxy)-N-(pyridin-3-yl)thiophene-2-carboxamide]: the inhibition at 1 µM was 67%.

`O=C(Nc1cccnc1)c1sccc1OCc1ccccc1-c1ccccc1` [1-94, 3-[(1,1'-Biphenyl-2-yl)methoxy]-N-(pyridin-3-yl)thiophene-2-carboxamide]: the inhibition at 1 µM is 52%.

For the molecule `O=C(Nc1ccc2c(c1)Cc1ccccc1-2)c1sccc1OCc1ccccc1` [12-7, 3-(benzyloxy)-N-(9H-fluoren-2-yl)thiophene-2-carboxamide], the inhibition at 1 µM was -16%.

Turning to `Cc1nc(OCc2ccccc2)c(C(=O)Nc2cccnc2)s1` [12-9, 4-(benzyloxy)-2-methyl-N-(pyridin-3-yl)thiazole-5-carboxamide], the inhibition at 1 µM is -2%.

As for `CCCCCCCOc1ccc(Cl)cc1COc1ccsc1C(=O)Nc1cccnc1` [1-74, 3-(5-chloro-2-(heptyloxy)benzyloxy)-N-(pyridin-3-yl)thiophene-2-carboxamide], the inhibition at 1 µM came to 98%.

On to `O=C(Nc1cccnc1)c1sccc1OCc1cccc2cccnc12` [1-12, N-(pyridin-3-yl)-3-(quinolin-8-ylmethoxy)thiophene-2-carboxamide], for which the inhibition at 1 µM is 68%.

As to `CCCCCCOc1cccc(COc2ccsc2C(=O)Nc2cccnc2)c1` [1-79, 3-(3-(hexyloxy)benzyloxy)-N-(pyridin-3-yl)thiophene-2-carboxamide], the inhibition at 10 µM came out at 60%.

For the molecule `O=C(Nc1cccnc1)c1sccc1OCc1ccc(OC(F)(F)F)cc1` [1-54, 3-(4-(trifluoromethoxy)benzyloxy)-N-(pyridin-3-yl)thiophene-2-carboxamide], the inhibition at 10 µM worked out at 57%.

Regarding `O=C(Nc1cccnc1)c1sccc1OCc1ccccc1OCCc1ccccc1` [1-70, 3-(2-(phenylethoxy)benzyloxy)-N-(pyridin-3-yl)thiophene-2-carboxamide], the inhibition at 1 µM amounted to 95%.

Regarding `O=C(Nc1cnccc1Cl)c1sccc1OCc1ccccc1` [1-91, 3-benzyloxy-N-(4-chloropyridin-3-yl)thiophene-2-carboxamide], the inhibition at 10 µM came out at 56%.

As for `Cc1ccc(F)cc1COc1ccsc1C(=O)Nc1cccnc1` [1-88, 3-(5-fluoro-2-methylbenzyloxy)-N-(pyridin-3-yl)thiophene-2-carboxamide], the inhibition at 1 µM came to 76%.

On to `O=C(Nc1cccnc1)c1cncnc1OCc1ccccc1` [12-19, 4-benzyloxy-N-(pyridin-3-yl)pyrimidin-5-carboxamide], for which the inhibition at 10 µM was found to be 18%.

Take `O=C(Nc1cccnc1)c1sccc1OCc1ccccc1C(F)(F)F` [1-59, 3-(2-(trifluoromethyl)benzyloxy)-N-(pyridin-3-yl)thiophene-2-carboxamide]: the inhibition at 1 µM came out at 71%.

`Cc1ncccc1NC(=O)c1sccc1OCc1ccccc1` [1-68, 3-benzyloxy-N-(2-methylpyridin-3-yl)thiophene-2-carboxamide]: the inhibition at 10 µM came out at 50%.
